Assay results from patent publication US20030013660A1, “Dioxolane analogs for improved inter-cellular delivery” (Shire BioChem Inc., priority 2000, published 2003).
Where two headings read alike, the source gives them in different places.

What was measured:
Assay in all cases: 3H-TdR (3H-thymidine) incorporation assay at 72 hr
MCF-7 = type: cell-based, Human; details: Homo sapiens
H-460 = type: cell-based, Human; details: Homo sapiens
SF-268 = type: cell-based, Human; details: Homo sapiens
CCRF-CEM = type: cell-based; details: Homo sapiens, CCRF-CEM
Method: (§1) Table of IC50 Values (μM) for Controls
(§2) Exposition of 24 hr to drug, wash, incubated for another 48 hr (total of 72 hr assay)
(§3) (3H-Thymidine Incorporation Assay)

CEM/dCK- = type: cell-based; details: for IC50: Homo sapiens, CCRF-CEM; for Factor* (Resistance Factor = Ratio of dCK- on Wild-type CCRF-CEM): ratio of IC50 CEM/dCK- to CCRF-CEM, 24 h
Method: as §1, §2, §3

[1] = MCF7, read-out: IC50 MCF-7 24 h, 24 h drug exposure, wash, another 48 hr, 3H-TdR incorporation at 72 hr
[2] = NCI-H460, read-out: IC50 H-460 24 h, 24 h drug exposure, wash, another 48 hr, 3H-TdR incorporation at 72 hr
[3] = SF-268, read-out: IC50 SF-268 24 h, 24 h drug exposure, wash, another 48 hr, 3H-TdR incorporation at 72 hr
[4] = read-out: IC50 CCRF-CEM 24 h, 24 h drug exposure, wash, another 48 hr, 3H-TdR incorporation at 72 hr
[5] = read-out: IC50 CEM/dCK- 24 h, 24 h drug exposure, wash, another 48 hr, deoxycytidine kinase-deficient CCRF-CEM
[6] = MCF7, read-out: IC50 MCF-7 24 h
[7] = NCI-H460, read-out: IC50 H-460 24 h
[8] = SF-268, read-out: IC50 SF-268 24 h

| Structure (SMILES) | IC50 (MCF-7; [1]) [nM] | IC50 (H-460; [2]) [nM] | IC50 (SF-268; [3]) [nM] | IC50 (CCRF-CEM; [4]) [nM] | IC50 (CEM/dCK-; [5]) [µM] | Factor* (Resistance Factor = Ratio of dCK- on Wild-type CCRF-CEM) (CEM/dCK-) | IC50 (MCF-7; [6]) [nM] | IC50 (H-460; [7]) [nM] | IC50 (SF-268; [8]) [nM] | IC50 (CCRF-CEM; read-out: IC50 CCRF-CEM 24 h) [nM] | IC50 (CEM/dCK-; read-out: IC50 CEM/dCK- 24 h) [µM] |
| --- | --- | --- | --- | --- | --- | --- | --- | --- | --- | --- | --- |
| CCOC(C)OC[C@H]1OC[C@@H](n2ccc(N)nc2=O)O1 (stereo in doubt) [Compound 91, 4-AMINO-1-[2-(1-ETHOXY- ETHOXYMETHYL)- [1,3]DIOXOLAN-4-YL]-1H- PYRIMIDIN-2-ONE] | 1800 | 630 | 5500 | 2800 | > 100 | 36 | – | – | – | – | – |
| CC(=O)OCC1OC2OC(C)(OC[C@H]3OC[C@@H](n4ccc(NC(=O)OCc5ccccc5)nc4=O)O3)OC2C(OC(C)=O)C1OC(C)=O (stereo in doubt) [Compound 148, Acetic acid 6-acetoxy-5-acetoxymethyl-2-[4-(4-benzyloxycarbonylamino-2-oxo-2H-pyrimidin-1-yl)-[1,3]dioxolan-2-ylmethoxy]-2-methyl-tetrahydro-[1,3]dioxolo[4,5-b]pyran-7-yl ester] | 6300 | 36000 | 9900 | 6300 | 24 | 4 | – | – | – | – | – |
| CC(=O)OCC1OC2OC(C)(OC[C@H]3OC[C@@H](n4ccc(N)nc4=O)O3)OC2C(OC(C)=O)C1OC(C)=O (stereo in doubt) [Compound 151, Acetic acid 6-acetoxy-5-acetoxymethyl-2-[4-(4-amino-2-oxo-2H-pyrimidin-1-yl)-[1,3]dioxolan-2-ylmethoxy]-2-methyl-tetrahydro-[1,3]dioxolo [4,5-b]pyran-7-yl ester] | 8300 | 9700 | 4400 | 590 | > 100 | >169 | – | – | – | – | – |
| CC(CCCCN(Cc1ccccc1)C(=O)OC(C)(C)C)C(=O)Nc1ccn([C@@H]2CO[C@H](CO)O2)c(=O)n1 (stereo in doubt) [Compound 158, Benzyl-{5-[1-(2-hydroxymethyl-[1,3]dioxolan-4-yl)-2-oxo-1,2-dihydro-pyrimidin-4-ylcarbamoyl]-hexyl}-carbamic acid tert-butyl ester] | 40 | 630 | 3700 | 94 | 58 | 617 | – | – | – | – | – |
| COC(OC)OC[C@H]1OC[C@@H](n2ccc(N)nc2=O)O1 [Compound 38, 4-AMINO-1-(2- DIMETHOXYMETHOXYMETHYL- [1,3]DIOXOLAN-4-YL)-1H- PYRIMIDIN-2-ONE] | 1000 | 340 | 900 | 110 | > 100 | 909 | – | – | – | – | – |
| Nc1ccn([C@@H]2CO[C@H](COC3OCCO3)O2)c(=O)n1 [Compound 40, 4-AMINO-1-[2- ([1,3]DIOXOLAN-2- YLOXYMETHYL)- [1,3]DIOXOLAN-4-YL]-1H- PYRIMIDIN-2-ONE] | 70 | 320 | 900 | 89 | > 100 | 1,123 | – | – | – | – | – |
| O=C(Nc1ccn([C@@H]2CO[C@H](COC(=O)Oc3ccccc3)O2)c(=O)n1)Oc1ccccc1 [Compound 43] | – | – | – | – | – | 1,000,000 | 4.1 | 10 | 29 | < 0.1 | > 100 |
| O=C(Nc1ccn([C@@H]2CO[C@H](CO)O2)c(=O)n1)Oc1ccccc1 [Compound 44, [1-(2-HYDROXYMETHYL- [1,3]DIOXOLAN-4-YL)-2- OXO-1,2-DIHYDRO- […]-4-YL]- CARBAMIC ACID PHENYL ESTER] | – | – | – | – | – | 1,300 | 970 | 370 | 890 | 77 | > 100 |
| CCOC(=O)Nc1ccn([C@@H]2CO[C@H](CO)O2)c(=O)n1 [Compound 45, [1-(2-HYDROXYMETHYL- [1,3]DIOXOLAN-4-YL)-2- OXO-1,2-DIHYDRO- PYRIMIDIN-4-YL]- CARBAMIC ACID ETHYL ESTER] | 2700 | 3200 | 9000 | 1600 | > 100 | 63 | – | – | – | – | – |
| CCOC(=O)OC[C@H]1OC[C@@H](n2ccc(N)nc2=O)O1 [Compound 46, CARBONIC ACID 4-(4- AMINO-2-OXO-2H- PYRIMIDIN-1-YL)- [1,3]DIOXOLAN-2- YLMETHYL ESTER ETHYL ESTER] | 160 | 86 | 560 | 60 | > 100 | 1,667 | – | – | – | – | – |
| CCOC(=O)Nc1ccn([C@@H]2CO[C@H](COC(=O)OCC)O2)c(=O)n1 [Compound 47, CARBONIC ACID 4-(4- ETHOXYCARBONYLAMINO-2- OXO-2H-PYRIMIDIN-1-YL)- [1,3]DIOXOLAN-2- YLMETHYL ESTER ETHYL ESTER] | 2400 | 1800 | 38000 | 2900 | > 100 | 34 | – | – | – | – | – |
| CC(C)(C)C(=O)Nc1ccn([C@@H]2CO[C@H](CO)O2)c(=O)n1 [Compound 49, N-[1-(2-HYDROXYMETHYL- [1,3]DIOXOLAN-4-YL)- CYTOSYL]-2,2-DIMETHYL- PROPIONAMIDE] | 8800 | 4500 | 7100 | 570 | > 100 | 175 | – | – | – | – | – |
| O=C(Nc1ccn([C@@H]2CO[C@H](CO)O2)c(=O)n1)OCc1ccccc1 [Compound 50, [1-(2-HYDROXYMETHYL- [1,3]DIOXOLAN-4-YL)- CYTOSYL]-CARBAMIC ACID BENZYL ESTER] | 820 | 1200 | 1300 | 170 | > 100 | 588 | – | – | – | – | – |
| O=C(Nc1ccn([C@@H]2CO[C@H](COC(=O)OCc3ccccc3)O2)c(=O)n1)OCc1ccccc1 [Compound 51, 4-(4- BENZYLOXYCARBONYLAMINOC YTOSYL)-[1,3]DIOXOLAN- 2-YLMETHYL BENZYL CARBONATE] | 570 | 830 | 860 | 24 | 47 | 1,958 | – | – | – | – | – |
| Nc1ccn([C@@H]2CO[C@H](COC(=O)Cc3ccccc3)O2)c(=O)n1 [Compound 52, (2S,4S)-2- PHENYLACETOXYMETHYL-4- CYTOSIN-1′-YL-1,3- DIOXOLANE] | – | – | – | – | – | 400 | 88 | 6.8 | 32 | 1.2 | 0.48 |
| COC(C)(C)OC[C@H]1OC[C@@H](n2ccc(N)nc2=O)O1 [Compound 54, 4-AMINO-1-[2-(1- METHOXY-1-METHYL- ETHOXYMETHYL)- [1,3]DIOXOLAN-4-YL]-1H- PYRIMIDIN-2-ONE] | 500 | 170 | 700 | 120 | 65 | 542 | – | – | – | – | – |
| CCCCCCCC(=O)Nc1ccn([C@@H]2CO[C@H](CO)O2)c(=O)n1 [Compound 55, OCTANOIC ACID [1-(2- HYDROXYMETHYL- [1,3]DIOXOLAN-4-YL)-2- OXO-1, 2-DIHYDRO- PYRIMIDIN-4-YL]-AMIDE] | 7.8 | 29 | 47 | 12 | 64 | 5,333 | – | – | – | – | – |
| CC(C)(C)C(=O)OCOC[C@H]1OC[C@@H](n2ccc(N)nc2=O)O1 [Compound 58, 2,2-DIMETHYL-PROPIONIC ACID 4-(4-AMINO-2-OXO- 2H-PYRIMIDIN-1-YL)- [1,3]DIOXOLAN-2- YLMETHOXYMETHYL ESTER] | 16 | 12 | 130 | 14 | 38 | 2,714 | – | – | – | – | – |
| CCCCOC(=O)Nc1ccn([C@@H]2CO[C@H](CO)O2)c(=O)n1 [Compound 59, [1-(2-HYDROXYMETHYL- [1,3]DIOXOLAN-4-YL)-2- OXO-1,2-DIHYDRO- PYRIMIDIN-4-YL]- CARBAMIC ACID BUTYL ESTER] | 190 | 1400 | 690 | 540 | > 100 | 185 | – | – | – | – | – |
| COCCOCOC[C@H]1OC[C@@H](n2ccc(N)nc2=O)O1 [Compound 62, 4-AMINO-1-[2-(2- METHOXY- ETHOXYMETHOXYMETHYL)- [1,3]DIOXOLAN-4-YL]-1H- PYRIMIDIN-2-ONE] | 1700 | 890 | 4300 | 350 | > 100 | 288 | – | – | – | – | – |
| COc1ccc(OC(=O)Nc2ccn([C@@H]3CO[C@H](COC(=O)Oc4ccc(OC)cc4)O3)c(=O)n2)cc1 [Compound 63] | – | – | – | – | – | 2,778 | 370 | 110 | 76 | 36 | > 100 |
